Reference: patent publication US11339124B2, “3-(benzylamino)-4-(cyclohexylamino)-n-(2-(piperazin-1-yl)ethyl)benzenesulfonamide derivatives and related ferrostatin-1 analogues as cell death inhibitors for treating e.g. stroke” (VIB VZW, priority 2018, dated 2022)
pIC50: −log10 of the molar value. Read-outs that look alike come from different tables or passages of the source.

Tests used:
[1] = Kinetic solubility (turbidimetric method); type: physicochemical; settings: 10 mM PBS pH 7.4, 2% DMSO, test range 3.125-200 μM, 2 h at 37° C.
Procedure: A turbidimetric method was used. First a series of DMSO compound stock solutions was prepared ([…]). An aliquot of 4 μL stock solution was added to 196 μL PBS buffer (pH 7.4). A series of concentrations were prepared (3.13-200 μM), including a blank on a microtiter plate. (2% DMSO-D6) The microtiter plate was shaken for 10 seconds and incubated for 2 hours at 37° C. When there was no turbidity measured at a given concentration the sample was assumed to be dissolved.

[2] = system: IMR-32 Neuroblastoma cells; assay: Erastin-induced ferroptosis in IMR-32 neuroblastoma cells (Sytox Green cell death readout); type: cell-based; settings: IMR-32 cells, 10 μM erastin, compounds 1 nM to 1 μM, triplicate, read-out: IC50, antiferroptotic activity in response to erastin-induced ferroptosis
Procedure: In the present invention the potency of a compound inhibiting (or reducing) ferroptosis and/or oxytosis are determined in in vitro or in vivo assays. Typically in vitro assays are used to measure the potency of a candidate compound. Examples of suitable in vitro assays are cellular assays. One non-limiting example of an assay involves the use of the IMR-32 neuroblastoma cell line. The latter is stimulated to enter into ferroptosis upon stimulation with 10 μM erastin, a documented ferroptosis inducer (see for example Dixon et al (2012) Cell 149, 1060-1072 and ferroptosis inhibitors are evaluated for the prevention of erastin induced ferroptosis. Yet another assay is based the glutamate-induced cell death in the hippocampal cell line HT22 and ferroptosis/oxytosis inhibitors are evaluated for the prevention of cell death (see Henke N. et al (2013) Cell Death and Disease 4, e470). Still another assay is based on the sorafinib induced cell death (described to be iron dependent cell death) in hepatocellular carcinoma cells and ferroptosis inhibitors are evaluated for the prevention of cell death (see Louandre C. et al (2013) Int. J. Cancer 133, 1732). The calculated potency of a compound inhibiting ferroptosis and/or oxytosis is typically depicted as an IC50 value. Examples of suitable in vivo assays are typically pre-clinical disease models of for example mice for the diseases benefiting the application of ferroptosis and/or oxytosis inhibitors, as described herein. One non-limiting example of an in vivo assay is based on inducing liver damage in mice by administering the herbicide diquat dibromide monohydrate and ferroptosis inhibitors are evaluated based on reduced levels of liver transaminases in serum (see Ran Q et al (2004) J. Biol. Chem. 279, 53, 55137).
The IC50 values for the individual compounds of the invention were determined in the neuroblastoma, IMR-32 cell line. In brief, IMR-32 cells were subjected to 10 μM erastin, the latter compound is known to induce ferroptosis. A concentration gradient (ranging from 1 nM to 1 μM) of the compounds was applied to the cells. These experiments were performed in a 96-well format (in triplicate), and cell death was analyzed in a fluorescent plate reader by use of a fluorescent cell death dye (1.5 μM Sytox Green). The IC50 values depicted in Table 1 are the concentration values for the individual compounds which are able to overcome ferroptosis.

[3] = system: acute iron poisoning induced organ damage; assay: Acute iron poisoning (FeSO4) induced organ damage, plasma LDH and creatine kinase; type: in vivo
Procedure: Equimolar amounts of ferroptosis inhibitors (˜10 mg/kg) were injected iv 15 min before ip injection of FeSO4 (300 mg/kg). Plasma was collected 2 h after FeSO4-challenge and analyzed for the presence of lactate dehydrogenase (LDH) and creatine kinase. Fer-1 is ferrostatin, 3234 is compound 37,3206 is compound 38 and 3203 is compound 39 (see Table 1 for numbering and structure). […] Equimolar amounts of ferroptosis inhibitors (˜10 mg/kg) were injected iv 30 min after ip injection of FeSO4 (300 mg/kg). Plasma was collected 8 h after FeSO4-challenge and analyzed for the presence of lactate dehydrogenase (LDH) and creatine kinase.
We identified acute iron poisoning as a novel experimental model for in rhabdomyolysis-induced kidney failure.

[4] = Microsomal (metabolic) stability, human liver microsomes; settings: human liver microsomes, 0.5 mg protein/ml, 10 μM compound, 37° C.
Description: By using the measured microsomal in vitro t1/2, a calculated value for the intrinsic clearance Clint can be determined. This value states the measure in which a drug that is not bound to plasma proteins is irreversibly removed from the body by the liver. This value is expressed in mL/min/kg which can be interpreted as the volume of blood in mL that is cleared of a drug per minute per kilogram of body weight. The CLint is less sensitive to used variables in ADME assays since the amount of microsomal protein and the volume of the incubation are all taken into account. (Sohlenius-Sternbeck et al., Xenobiotica, 2012, 42, 841-853)
Liver microsomes (20 mg protein/ml), NADPH regenerating system solutions A & B and 5 mM stock compound solution (100% DMSO) are prepared. The reaction mixture finally contains 713 μL purified water, 200 μL 0.5 M potassium phosphate pH 7.4, 50 μL NADPH regenerating system solution A (BD Biosciences Cat. No. 451220), 10 μL NADPH regenerating system solution B (BD Biosciences Cat. No. 451200) and 2 μL of the compound stock solution (10 μM final concentration). The reaction mixture is warmed to 37° C. for 5 minutes in a water bath and the reaction is initiated by addition of 25 μL of liver microsomes (0.5 mg protein/ml final concentration). At different time points (0 min-15 min-30 min-60 min-120 min-240 min-360 min-24 h), 20 μL is withdrawn and 80 μL cold acetonitrile is added on ice for 10 minutes. Then the mixtures are centrifuged at 13 000 rpm for 5 min at 4° C. The supernatant is further diluted in 90% water/MeCN (1/25) to fall within the range of the LC/MS/MS analysis. At each time point, the compound is analysed using LC/MS/MS with the same UPLC system as described above. A standard curve of six points was made to fit the measured concentrations. Verapamil was used as a positive control.
All obtained readouts were processed using Microsoft Excel. In order to determine the microsomal half-life t1/2 of the compounds, the rate constant k was determined by plotting the exponential decay graphs using GraFit. Microsomal t1/2 was determined using the following formula: […]

CN1CCN(CCNS(=O)(=O)c2ccc(NC3CCCCC3)c(N)c2)CC1 [Compound 24, 3-amino-4-(cyclohexylamino)-N-(2-(4-methylpiperazin-1-yl)ethyl)benzenesulfonamide]
Solubility (kinetic) [1]: >200 µM
pIC50 ([2]; Homo sapiens): 6.63

Cl.O=S(=O)(NCCN1CCNCC1)c1ccc(NC2CCCCC2)c(NCc2ccncc2)c1 [Compound 49, 4-(cyclohexylamino)-N-(2-(piperazin-1-yl)ethyl)-3-((pyridin-4-ylmethyl)amino)benzenesulfonamide Hydrochloride]
Solubility (kinetic) [1]: >200 µM
pIC50 ([2]; Homo sapiens): 6.35

CN1CCN(CCNS(=O)(=O)c2ccc(NC3CCCCC3)c(NCc3ccccc3)c2)CC1 [Compound 34, 3-(benzylamino)-4-(cyclohexylamino)-N-(2-(4-methylpiperazin-1-yl)ethyl)benzenesulfonamide]
Solubility (kinetic) [1]: >200 µM
pIC50 ([2]; Homo sapiens): 5.97

COCCNS(=O)(=O)c1ccc(NC2CCCCC2)c(NCc2ccncc2)c1 [Compound 46, 4-(cyclohexylamino)-N-(2-methoxyethyl)-3-((pyridin-4-ylmethyl)amino)benzenesulfonamide]
Solubility (kinetic) [1]: >200 µM
pIC50 ([2]; Homo sapiens): 7.01

CCOC(=O)c1ccc(NC2CCCCC2)c(N)c1 [Compound 1, ferrostatin-1]
Protection against organ damage: plasma lactate dehydrogenase (LDH) and creatine kinase levels, prophylactic setting ([3]; ~10 mg/kg iv 15 min before FeSO4 300 mg/kg ip, plasma 2 h after challenge (FIG. 5A)): does not show any significant protection
Protection against organ damage: plasma lactate dehydrogenase (LDH) and creatine kinase levels, therapeutic setting ([3]; ~10 mg/kg iv 30 min after FeSO4 300 mg/kg ip, plasma 8 h after challenge (FIG. 5B)): only shows minor protection
Solubility (kinetic) [1]: >200 µM
pIC50 [2]: 7.48
Microsomal stability (t1/2), Human [4]: 6.54 ± 0.18 min

Cl.NCCNS(=O)(=O)c1ccc(NC2CCCCC2)c(NCc2ccncc2)c1 [Compound 48, N-(2-aminoethyl)-4-(cyclohexylamino)-3-((pyridin-4-ylmethyl)amino)benzenesulfonamide Hydrochloride]
Solubility (kinetic) [1]: 100 to 200 µM
pIC50 ([2]; Homo sapiens): 6.95

COCCNS(=O)(=O)c1ccc(NC2CCCCC2)c(NCc2ccccc2)c1 [Compound 36, 3-(benzylamino)-4-(cyclohexylamino)-N-(2-methoxyethyl)benzenesulfonamide]
Solubility (kinetic) [1]: 25 to 50 µM
pIC50 ([2]; Homo sapiens): 7.66

O=S(=O)(NCCN1CCOCC1)c1ccc(NC2CCCCC2)c(NCc2ccncc2)c1 [Compound 45, 4-(cyclohexylamino)-N-(2-morpholinoethyl)-3-((pyridin-4-ylmethyl)amino)benzenesulfonamide]
Solubility (kinetic) [1]: >200 µM
pIC50 ([2]; Homo sapiens): 6.72

CNCCNS(=O)(=O)c1ccc(NC2CCCCC2)c(NCc2ccncc2)c1.Cl [Compound 47, 4-(cyclohexylamino)-N-(2-(methylamino)ethyl)-3-((pyridin-4-ylmethyl)amino)benzenesulfonamide Hydrochloride]
Solubility (kinetic) [1]: >200 µM
pIC50 ([2]; Homo sapiens): 6.80

CNCCNS(=O)(=O)c1ccc(NC2CCCCC2)c(N)c1.Cl [Compound 27, 3-amino-4-(cyclohexylamino)-N-(2-(methylamino)ethyl)benzenesulfonamide Hydrochloride]
Solubility (kinetic) [1]: >200 µM
pIC50 ([2]; Homo sapiens): 6.67

CN(C)CCNS(=O)(=O)c1ccc(NC2CCCCC2)c(NCc2ccccc2)c1 [Compound 30, 3-(benzylamino)-4-(cyclohexylamino)-N-(2-(dimethylamino)ethyl)benzenesulfonamide]
Solubility (kinetic) [1]: >200 µM
pIC50 ([2]; Homo sapiens): 6.26

CN(C)CCNS(=O)(=O)c1ccc(NC2CCCCC2)c(NCc2ccncc2)c1 [Compound 40, 4-(cyclohexylamino)-N-(2-(dimethylamino)ethyl)-3-((pyridin-4-ylmethyl)amino)benzenesulfonamide]
Solubility (kinetic) [1]: >200 µM
pIC50 ([2]; Homo sapiens): 5.81

Nc1cc(S(=O)(=O)NCCN2CCOCC2)ccc1NC1CCCCC1 [Compound 25, 3-amino-4-(cyclohexylamino)-N-(2-morpholinoethyl)benzenesulfonamide]
Solubility (kinetic) [1]: >200 µM
pIC50 ([2]; Homo sapiens): 6.35

Nc1cc(S(=O)(=O)NCCN2CCNCC2)ccc1NC1CCCCC1 [Compound 29, 3-amino-4-(cyclohexylamino)-N-(2-(piperazin-1-yl)ethyl)benzenesulfonamide]
Solubility (kinetic) [1]: >200 µM
pIC50 ([2]; Homo sapiens): 6.53

Cl.NCCNS(=O)(=O)c1ccc(NC2CCCCC2)c(N)c1 [Compound 28, 3-amino-N-(2-aminoethyl)-4-(cyclohexylamino)benzenesulfonamide Hydrochloride]
Solubility (kinetic) [1]: >200 µM
pIC50 ([2]; Homo sapiens): 6.51

CN(C)CCNS(=O)(=O)c1ccc(NC2CCCCC2)c(N)c1 [Compound 20, 3-amino-4-(cyclohexylamino)-N-(2-(dimethylamino)ethyl)benzenesulfonamide]
Solubility (kinetic) [1]: >200 µM
pIC50 ([2]; Homo sapiens): 6.80

COCCNS(=O)(=O)c1ccc(NC2CCCCC2)c(N)c1 [Compound 26, 3-amino-4-(cyclohexylamino)-N-(2-methoxyethyl)benzenesulfonamide]
Solubility (kinetic) [1]: >200 µM
pIC50 ([2]; Homo sapiens): 6.31

CN1CCN(CCNS(=O)(=O)c2ccc(NC3CCCCC3)c(NCc3ccncc3)c2)CC1 [Compound 44, 4-(cyclohexylamino)-N-(2-(4-methylpiperazin-1-yl)ethyl)-3-((pyridin-4-ylmethyl)amino)benzenesulfonamide]
Solubility (kinetic) [1]: >200 µM
pIC50 ([2]; Homo sapiens): 5.82
